Measured values from ChEMBL document CHEMBL5113457, “Withaferin A, a polyfunctional pharmacophore that includes covalent engagement of IPO5, is an inhibitor of influenza A replication” (Bioorg Med Chem, 2022).
Active and inactive are the calls of the source. The calls are words filed in the database; no cut-off is given here.

Tests used:
A549 [1] = assay: Cytotoxicity against human A549 cells assessed as reduction in cell viability at 1 uM for 10 hrs by Hoechst 33342 staining based fluorescence microscopy; format: toxicity; conditions: a549, 10 h
Influenza A virus [2] = assay: Antiviral activity against drug treated Influenza A virus strain A/Netherlands/604/2009 cell lysate infected in dog MDCK cells assessed as reduction in viral replication at 1 uM and measured after 8 hr by crystal violet staining based plaque assay; format: functional, organism-based
Influenza A virus [3] = assay: Antiviral activity against drug treated Influenza A virus strain A/Netherlands/604/2009 cell lysate infected in dog MDCK cells assessed as reduction in viral replication at 500 nM and measured after 8 hr by crystal violet staining based plaque assay; format: functional, organism-based
[4] = biological target: Heat shock protein HSP90 (Homo sapiens) (UniProt P07900+P08238); assay: Binding affinity to recombinant human HSP90 at 10 uM by Western blotting based pull-down assay; format: protein assay
A549 [5] = assay: Upregulation of HO-1 expression in human A549 cells at 1 uM for 2 to 6 hrs by western blot analysis; format: functional, cell-based; conditions: time 2-6 hrs
[6] = biological target: Annexin A2 (Homo sapiens) (UniProt P07355); assay: Competitive binding affinity to human annexin A2 in human A549 cell lysate at 10 uM for 30 mins followed by GOYA-P treatment for 30 mins by DTB-Cy3 dye based SDS-PAGE analysis; format: subcellular; conditions: time 60.0 min
Sequence of Annexin A2 (Homo sapiens) (P07355 whole entry): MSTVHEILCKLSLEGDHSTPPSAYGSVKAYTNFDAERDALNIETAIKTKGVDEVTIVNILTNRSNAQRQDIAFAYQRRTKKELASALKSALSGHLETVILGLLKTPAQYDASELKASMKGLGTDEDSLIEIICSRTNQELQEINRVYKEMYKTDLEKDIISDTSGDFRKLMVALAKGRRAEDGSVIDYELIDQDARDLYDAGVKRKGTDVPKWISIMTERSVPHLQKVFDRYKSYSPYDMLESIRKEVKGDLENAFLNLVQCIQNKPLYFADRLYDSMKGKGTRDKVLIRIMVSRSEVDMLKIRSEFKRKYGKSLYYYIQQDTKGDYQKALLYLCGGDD

[7] = biological target: T1, Importin-5 (Homo sapiens) (UniProt O00410); assay: Competitive binding affinity to human IPO5 in human PC-3 cell lysate at 10 uM for 30 mins followed by GOYA-P treatment for 30 mins by DTB-Cy3 dye based SDS-PAGE analysis; format: subcellular; conditions: time 60.0 min
T1 sequence (whole entry): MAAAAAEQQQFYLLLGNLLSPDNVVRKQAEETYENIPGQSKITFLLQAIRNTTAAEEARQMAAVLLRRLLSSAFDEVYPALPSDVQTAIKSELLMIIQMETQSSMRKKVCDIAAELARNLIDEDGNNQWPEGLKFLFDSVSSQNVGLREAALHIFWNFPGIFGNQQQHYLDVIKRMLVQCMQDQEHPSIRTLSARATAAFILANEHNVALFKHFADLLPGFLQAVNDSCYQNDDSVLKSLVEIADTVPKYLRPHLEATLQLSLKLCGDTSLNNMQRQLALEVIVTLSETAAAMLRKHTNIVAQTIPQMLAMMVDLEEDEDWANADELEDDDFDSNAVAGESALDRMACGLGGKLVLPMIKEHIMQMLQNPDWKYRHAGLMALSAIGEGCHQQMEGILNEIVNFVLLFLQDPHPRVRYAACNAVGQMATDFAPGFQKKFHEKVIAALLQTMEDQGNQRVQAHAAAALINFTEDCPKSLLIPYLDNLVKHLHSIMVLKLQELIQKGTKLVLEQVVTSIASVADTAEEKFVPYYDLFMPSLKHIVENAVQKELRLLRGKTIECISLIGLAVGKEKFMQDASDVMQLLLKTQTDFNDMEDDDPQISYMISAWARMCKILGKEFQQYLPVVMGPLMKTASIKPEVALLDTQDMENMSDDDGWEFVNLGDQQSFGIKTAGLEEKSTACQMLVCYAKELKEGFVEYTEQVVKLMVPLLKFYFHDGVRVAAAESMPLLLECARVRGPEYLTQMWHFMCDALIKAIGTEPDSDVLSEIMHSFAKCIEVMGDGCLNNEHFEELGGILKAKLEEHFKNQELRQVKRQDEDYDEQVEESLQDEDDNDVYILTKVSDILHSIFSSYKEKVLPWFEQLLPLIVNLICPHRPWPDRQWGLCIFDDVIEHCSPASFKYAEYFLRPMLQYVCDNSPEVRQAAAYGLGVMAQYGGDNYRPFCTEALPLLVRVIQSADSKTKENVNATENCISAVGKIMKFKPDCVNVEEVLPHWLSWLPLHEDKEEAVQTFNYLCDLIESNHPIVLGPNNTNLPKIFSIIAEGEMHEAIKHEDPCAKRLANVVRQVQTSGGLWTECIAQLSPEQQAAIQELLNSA

[8] = biological target: T1, Importin-5 (Homo sapiens); assay: Competitive binding affinity to human IPO5 in human PC-3 cell lysate at 10 uM for 30 mins followed by GOYA-P treatment for 30 mins by DTB-Cy3 dye based pull-down assay; format: subcellular; conditions: time 60.0 min
[9] = biological target: T1, Importin-5 (Homo sapiens); assay: Binding affinity to human IPO5 in human PC-3 cell lysate assessed as inhibition of IPO5 interaction with NLS PB1 cargo protein from Influenza A virus at 10 uM for 30 mins by pull-down assay; format: subcellular
Influenza A virus [10] = assay: Antiviral activity against Influenza A virus strain A/Netherlands/604/2009 infected in human A549 cells assessed as reduction in influenza virus nucleoprotein production at 1 to 10 uM preincubated for 40 mins followed by virus infection and measured after 4 to 6 hrs by Western blot analysis; format: functional, organism-based; conditions: dose 1-10 µM, time 280-400 min
Influenza A virus [11] = assay: Antiviral activity against Influenza A virus strain A/Netherlands/604/2009 infected in human A549 cells assessed as reduction in influenza virus nucleoprotein production at 2.5 uM preincubated for 40 mins followed by virus infection and measured after 4 to 6 hrs by Western blot analysis; format: functional, organism-based; conditions: time 280-400 min
Influenza A virus [12] = assay: Antiviral activity against Influenza A virus strain A/Netherlands/604/2009 infected in human A549 cells assessed as reduction in influenza virus nucleoprotein production at 1 uM preincubated for 40 mins followed by virus infection and measured after 4 to 6 hrs by Western blot analysis; format: functional, organism-based; conditions: time 280-400 min
Vimentin (Homo sapiens) [13] = biological target: Vimentin (Homo sapiens) (UniProt P08670); assay: Competitive binding affinity to human Vimentin in human PC-3 cell lysate at 10 uM for 30 mins followed by WA-P1 treatment for 30 mins by SDS gel Cy3 fluorescence based MS/MS analysis; format: subcellular; conditions: time 60.0 min
Sequence of Vimentin (Homo sapiens) (P08670 whole entry): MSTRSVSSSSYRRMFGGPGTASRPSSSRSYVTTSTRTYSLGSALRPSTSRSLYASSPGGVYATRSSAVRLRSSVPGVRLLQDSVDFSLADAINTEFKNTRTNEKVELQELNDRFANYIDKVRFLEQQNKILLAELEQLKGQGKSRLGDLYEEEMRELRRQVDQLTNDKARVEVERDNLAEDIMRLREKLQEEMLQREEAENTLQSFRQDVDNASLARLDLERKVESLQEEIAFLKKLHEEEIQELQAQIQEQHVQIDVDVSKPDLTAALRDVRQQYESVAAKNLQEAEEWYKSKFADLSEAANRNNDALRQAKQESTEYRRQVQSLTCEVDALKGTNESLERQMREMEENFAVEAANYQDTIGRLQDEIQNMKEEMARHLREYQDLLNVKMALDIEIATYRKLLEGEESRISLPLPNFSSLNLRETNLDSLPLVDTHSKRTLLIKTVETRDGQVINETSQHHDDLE

Vimentin (Homo sapiens) [14] = biological target: Vimentin (Homo sapiens) (UniProt P08670); assay: Competitive binding affinity to human Vimentin in human PC-3 cell lysate at 10 uM for 30 mins followed by WA-P2 treatment for 30 mins by SDS gel Cy3 fluorescence based MS/MS analysis; format: subcellular; conditions: time 60.0 min
[15] = biological target: T1, Importin-5 (Homo sapiens); assay: Binding affinity to human IPO5 in human PC-3 cell lysate incubated for 30 mins by DTB-Cy3 dye based pull down analysis; format: subcellular

Row | SMILES | Activity (A549 [1]) | Activity (Influenza A virus [2]) | Activity (Influenza A virus [3]) | Activity [4] | Activity (A549 [5]) | Activity [6] | Activity [7] | other results
1 | C#CCCC(=O)O[C@H]1C=CC(=O)[C@]2(C)[C@H]3CC[C@]4(C)[C@@H]([C@H](C)C5CC(C)=C(CO)C(=O)O5)CC[C@H]4[C@@H]3C[C@H]3O[C@]132 (stereo partly drawn) | Non-Toxic | Active | Active | Active |  |  |  | 
2 | COC(=O)[C@]12CCC(C)(C)C[C@@H]1[C@H]1C(=O)C=C3[C@@]4(C)C=C(C#N)C(=O)C(C)(C)[C@@H]4CC[C@@]3(C)[C@]1(C)CC2 |  | Active |  |  | Active |  |  | 
3 | C#CCCC(=O)OCC1=C(C)CC([C@@H](C)[C@H]2CC[C@H]3[C@@H]4C[C@H]5O[C@]56[C@@H](O)C=CC(=O)[C@]6(C)[C@H]4CC[C@]23C)OC1=O (stereo partly drawn) | Non-Toxic | Active | Active | Active |  |  |  | 
4 | CC1=C(CO)C(=O)O[C@@H]([C@@H](C)[C@H]2CC[C@H]3[C@@H]4C[C@H]5O[C@]56[C@@H](O)C=CC(=O)[C@]6(CO)[C@H]4CC[C@]23C)C1 | Non-Toxic | Active | Active |  | Active | Active | Active | Activity [8]: Active; Activity [9]: Active; Activity (Influenza A virus [10]): Active; Activity (Influenza A virus [11]): Active; Activity (Influenza A virus [12]): Active; Activity (Vimentin (Homo sapiens) [13]): Active; Activity (Vimentin (Homo sapiens) [14]): Active
5 | C#CCOCC(=C)C(=O)O[C@H]1C[C@@]2(C)OC(=CC2=O)/C(CO)=C\[C@H]2OC(=O)C(=C)[C@H]12 |  |  |  |  |  |  |  | Activity [15]: Active
6 | C=C(C)C(=O)O[C@H]1C[C@@]2(C)OC(=CC2=O)/C(CO)=C\[C@H]2OC(=O)C(=C)[C@H]12 [GOIAZENSOLIDE] | Non-Toxic | Active |  |  |  | Active | Active | 
